Columns and labels:
[1] = test system: B10-Dmd-KO (Mdx) mice; test: PK/PD detection of mouse model with Dmd (Mdx) gene mutation, plasma CK; assay type: in vivo; conditions: oral
Excerpt: Experimental objective: Bl0-Dmd-KO (Mdx) mice are DMD function-deficient mice caused by frameshift mutations in the Dmd gene. […] This study has investigated the effects on CK and TNNI2 in the plasma of Mdx mice upon administration of compounds.
Experimental animal: B10-Dmd-KO (C57BL/10ScSnJGpt-Dmdem3Cd4/Gpt), male, 5-7 weeks old, weight 28-30 g, supplier. Gempharmatech Co., Ltd.;
• 1) Running training (D-5): Mdx mice underwent running training in batches. The training parameters were set as three time periods, i.e., the initial speed of 4 m/min for 2 min, then 8 m/min for 8 min, and finally 12 m/min for 30 min, a total of 40 min; • 2) Gripping strength test (D-2): each round was measured three times, and three rounds were performed; • 3) Grouping (DO): the animals were anesthetized by inhalation of isoflurane (concentration: 5%, gas flow rate: 1 L/min), and then a capillary tube was used to collect blood (about 150 μL) via orbital venous sinus into a 0.6 mL centrifuge tube containing EDTA anticoagulant, the plasma wad separated, and the CK value was detected, which was used as the basic value for grouping; • 4) Administration, grasping, and blood collection (D1): The compounds were dissolved in the vehicle 5% DMA+5% HS-15+90% Saline, then orally administered to the mice, and then the grip strength test was conducted (three tests per round for three rounds). […] A capillary tube was used to collect blood (>300 μL) via orbital venous sinus into a 0.6 mL centrifuge tube containing EDTA anticoagulant, and then the animals were euthanized to collect the tibialis anterior muscle (left leg), soleus muscle (both legs) and cardiac muscle, which were weighed and recorded, placed in a homogenization tube and quickly frozen in liquid nitrogen, then stored at −80° C.
Sample processing: After the whole blood anticoagulated with EDTA was centrifuged at 3000 rpm and 4° C. for 10 min, the […] was collected and subpackaged. The separated […] was subjected to a biochemical analyzer (Fully automatic biochemical analyzer Roche C311) to detect the CK value and TNN12 value (Mouse TNNI2 Elisa Kit, ABBEXA, E2207370Y); The […] concentration of the compound and the drug concentration in tibialis anterior muscle, soleus muscle and cardiac muscle were measured by LC/MS instrument.

[2] = Pharmacokinetic experiment in mouse muscle tissue (tibialis anterior / plasma); assay type: in vivo, C57 mice; conditions: male, C57, tibialis anterior muscle / plasma, oral, intragastric 10 mg/kg, read-out: Ratio = Tibialis anterior Conc./Plasma Conc.
Experimental: 1. Experimental animals: Male C57 mice, 22-25 g, 6 mice/compound. Purchased from Chengdu Ddossy Experimental Animals Co., Ltd.
(§1) 2. Experimental design: On the day of the experiment, C57 mice were randomly grouped according to their body weight. The animals were fasted with water available for 12 to 14 h one day before the administration and were fed 4 h after the administration. Administration was performed as per Table 10.1.

[3] = Pharmacokinetic experiment of beagle dogs; assay type: in vivo; conditions: male, dog, plasma, oral, beagles, intragastric 3 mg/kg vs intravenous 1 mg/kg, read-out: bioavailability (F)
Experimental: 1. Experimental animals: male beagle dogs, about 8-11 kg, 6 beagle dogs/compound, purchased from Beijing Marshall Biotechnology Co., Ltd.
as §1, with “method:” for “design:”, “test, (6×number of test compounds (n)) beagles” for “experiment, C57 mice”, “divided into groups” for “grouped”, “to” for “to their”, “6.” for “10.1.”
• Before and after the administration, 1 mL of blood was taken from the jugular veins or limb veins, and placed in an EDTAK2 centrifuge tube. Centrifugation was performed at 5000 rpm at 4° C. for 10 min, and plasma was collected. The blood collection time points for the intravenous group and intragastric administration group were: 0 min, 5 min, 15 min, 30 min, 1 h, 2 h, 4 h, 6 h, 8 h, 10 h, 12 h, 24 h, 48 h, 72 h, and 96 h. Before analysis and detection, all samples were stored at −80° C. The samples were analyzed quantitatively by LC-MS/MS.

[4] = 10 mpk, QD administration for 7 days

SMILES | Kp at 6 h [2] | Kp at 24 h [2] | bioavailability [3] [%] | Inhibition rate of CK values (sampled 24 h after (last) dose) ([1]; 10 mpk single administration) [%] | Inhibition rate of CK values (sampled 24 h after (last) dose) [1, 4] [%]
O=c1ccc(-c2cnc(OCC(F)(F)F)nc2)nn1Cc1ccc2c(c1)CCC2 [Compound 57] |  |  |  | 108.2 | 
O=C1CCc2ccc(Cn3nc(-c4cnc(O[C@@H]5CCOC5)nc4)ccc3=O)cc21 [Compound 149] | 113 | 171 |  |  | 
O=C1CCc2ccc(Cn3nc(-c4cnc(O[C@H]5CCOC5)nc4)ccc3=O)cc21 [Compound 150] | 82.2 | 140 |  |  | 

Further lines, with some results ahead:

Kp at 6 h [2] | Kp at 24 h [2] | bioavailability [3] [%] | SMILES | Inhibition rate of CK values (sampled 24 h after (last) dose) ([1]; 10 mpk single administration) [%] | Inhibition rate of CK values (sampled 24 h after (last) dose) [1, 4] [%]
63.5 | 81.1 |  | O=C1CCc2ccc(Cn3nc(-c4cnc(OCC(F)(F)F)nc4)ccc3=O)cc21 [Compound 88] |  | 91.6
136 | 158 | 112 | O=C1CCc2ccc(Cn3nc(-c4cnc(OCC(F)F)nc4)ccc3=O)cc21 [Compound 131] |  | 94.1
89.9 | 116 |  | O=C1CCc2ccc(Cn3nc(-c4cnc(OC5CC(F)(F)C5)nc4)ccc3=O)cc21 [Compound 141] |  | 

From patent publication US20260217683A1, “PYRIDAZINONE HETEROCYCLIC COMPOUND MYOSIN II INHIBITOR AND USE THEREOF” (Xizang Haisco Pharmaceutical Co., Ltd., priority 2023, published 2026)
